Read-outs that look alike come from different tables or passages of the source.
Assay: Metabolic stability in human liver microsomes (in vitro t1/2)
Type: in vitro ADME
Conditions: pooled human liver microsomes, pooled human liver microsomes 3.0 mg/mL, test compound 0.5 μM, NADPH, 37° C.
Protocol: Microsomal Assay: Human liver microsomes (20 mg/mL) were obtained from Xenotech, LLC (Lenexa, Kans.). βnicotinamide adenine dinucleotide phosphate, reduced form (NADPH), magnesium chloride (MgCl2), and dimethyl sulfoxide (DMSO) were purchased from SigmaAldrich. The incubation mixtures were prepared according to Table 2:
Determination of Metabolic Stability: Two aliquots of this reaction mixture were used for a compound of this invention. The aliquots were incubated in a shaking water bath at 37° C. for 3 minutes. The test compound was then added into each aliquot at a final concentration of 0.5 μM. The reaction was initiated by the addition of cofactor (NADPH) into one aliquot (the other aliquot lacking NADPH served as the negative control). Both aliquots were then incubated in a shaking water bath at 37° C. Fifty microliters (50 μL) of the incubation mixtures were withdrawn in triplicate from each aliquot at 0, 5, 10, 20, and 30 minutes and combined with 50 μL of ice-cold acetonitrile to terminate the reaction. The same procedure was followed for gefitinib and 7-ethoxycoumarin, the positive control. Testing was done in triplicate.
Data analysis: The in vitro half-lives (t1/2s) for test compounds were calculated from the slopes of the linear regression of % parent remaining (ln) vs incubation time relationship using the following formula: in vitro t1/2=0.693/k, where k=[slope of linear regression of % parent remaining(ln)vs incubation time] Data analysis was performed using Microsoft Excel Software.
The metabolic stability of compounds of Formula A or I was tested using pooled liver microsomal incubations. Full scan LCMS analysis was then performed to detect major metabolites. Samples of the test compounds, exposed to pooled human liver microsomes, were analyzed using HPLCMS (or MS/MS) detection. For determining metabolic stability, multiple reaction monitoring (MRM) was used to measure the disappearance of the test compounds. For metabolite detection, Q1 full scans were used as survey scans to detect the major metabolites.

[1] = Experiment No. 1, read-out: t½ (min), Experiment No. 1
[2] = Experiment No. 2, read-out: t½ (min), Experiment No. 2
[3] = Experiment No. 3, read-out: t½ (min), Experiment No. 3
[4] = average of experiments 1-3, read-out: t½ (min), Ave

| half-life at 0.5 μM [1] | half-life at 0.5 μM [2] | half-life at 0.5 μM [3] | half-life at 0.5 μM [4] | SMILES |
| --- | --- | --- | --- | --- |
| 24.3 min | 23.8 min | 23.1 min | 23.7 min | [2H]C([2H])([2H])Oc1cc2ncnc(Nc3ccc(F)c(Cl)c3)c2cc1OC([2H])([2H])C([2H])([2H])C([2H])([2H])N1C([2H])([2H])C([2H])([2H])OC([2H])([2H])C1([2H])[2H] [Compound 101, N-(3-Chloro-4-fluorophenyl)-7-(methoxy-d3)-6-(3-(morpholino-d8)propoxy-d6)quinazolin-4-amine] |
| 22.5 min | 20.8 min | 21.8 min | 21.7 min | [2H]C([2H])([2H])Oc1cc2ncnc(Nc3ccc(F)c(Cl)c3)c2cc1OC([2H])([2H])C([2H])([2H])C([2H])([2H])N1CCOCC1 [Compound 102, N-(3-Chloro-4-fluorophenyl)-7-(methoxy-d3)-6-(3-morpholino(propoxy-d6))quinazolin-4-amine] |
| 22.5 min | 20.8 min | 21.8 min | 21.7 min | [2H]C([2H])([2H])Oc1cc2ncnc(Nc3ccc(F)c(Cl)c3)c2cc1OCCCN1CCOCC1 [Compound 104, N-(3-Chloro-4-fluorophenyl)-7-(methoxy-d3)-6-(3-morpholinopropoxy)quinazolin-4-amine] |
| 19.4 min | 17.6 min | 19.8 min | 18.9 min | COc1cc2ncnc(Nc3ccc(F)c(Cl)c3)c2cc1OCCCN1CCOCC1 [Gefitinib, (3-chloro-4-fluoro-phenyl)-[7-methoxy-6-(3-morpholin-4-yl-propoxy)-quinazolin-4-yl]-amine] |

From patent US9133137B2, “Derivatives of gefitinib” (Concert Pharmaceuticals, Inc., priority 2008, dated 2015)
